# Publication PMC9532951, “Identification and characterization of a novel SNAT2 (SLC38A2) inhibitor reveals synergy with glucose transport inhibition in cancer cells” (Frontiers in Pharmacology, 2022)
# Several values for one entry are separate records, joined by “and”; a condition that tells them apart may be missing. Identical values can stand only once.
# Tests used:
# [1] = system: HCC1806 cells; experiment: Assay of glycolytic activity (extracellular lactate); type: cell-based, human; conditions: 57E 20 μM
# Protocol: Glycolytic activity was measured by detecting extracellular lactate levels over a 48-h time course. HCC1806 and HPAFII cells were seeded on a 24-well plate at approximately 500,000 and 700,000 cells/well, respectively, and incubated in growth medium overnight. The following day, the growth medium was aspirated and each well was washed once with growth medium and 1.3 ml of the treatment solution was added to begin the time-course. In addition to sampling the medium at the start of the experiment, 50 μL was collected from each well at the following time points: 9, 24 and 48 h. Samples were stored at −20°C until further use. Lactate was detected by an enzymatic assay, which consisted of combining in microcentrifuge tubes: 5 μl of sample, 45 μl of water; 25 μl of 40 mM NAD^+; 421 μl of buffer (1M glycine, 600 mM hydrazine sulfate, 5.6 mM EDTA; adjusted to pH 9.5 with sodium hydroxide); and 4 μL of L-lactate dehydrogenase solved at 300U/mL (3.33 mg/ml). The tubes were briefly vortexed and incubated for 15 min before transferring 200 μL of the mixture to a 96-well plate. The calibration curve spanned final concentrations from 5 to 500 μM. Absorbance was measured at 340 nm to detect NADH. Lactate production was normalised to total cellular protein per well as measured by the Bradford assay.
# [2] = biological target: T1, SNAT1 and SNAT2 (Homo sapiens, UniProt Q9H2H9); experiment: FMP assay in HCC1806 clones C10 (ASCT2ko) and D126 (ASCT2ko, SNAT2ko); type: cell-based; conditions: D126 cells
# T1 construct: endogenous in cells; host or cells: HCC1806 clone C10 (ASCT2ko) and clone D126 (ASCT2ko, SNAT2ko), amino acid depleted for 24 h
# T1 sequence (Q9H2H9 1-487): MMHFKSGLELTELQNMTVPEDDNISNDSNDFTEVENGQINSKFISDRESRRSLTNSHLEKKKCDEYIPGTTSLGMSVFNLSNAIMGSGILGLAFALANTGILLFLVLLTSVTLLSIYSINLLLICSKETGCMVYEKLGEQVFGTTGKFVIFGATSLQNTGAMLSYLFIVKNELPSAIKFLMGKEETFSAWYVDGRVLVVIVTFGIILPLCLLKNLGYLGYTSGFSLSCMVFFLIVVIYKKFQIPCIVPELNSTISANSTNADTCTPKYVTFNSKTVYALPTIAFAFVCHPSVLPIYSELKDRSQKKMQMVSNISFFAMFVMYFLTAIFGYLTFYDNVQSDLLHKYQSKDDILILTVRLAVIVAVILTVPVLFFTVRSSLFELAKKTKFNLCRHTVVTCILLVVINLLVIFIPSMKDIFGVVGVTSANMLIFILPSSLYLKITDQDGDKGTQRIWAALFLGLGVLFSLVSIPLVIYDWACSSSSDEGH
# Protocol: To delete the SNAT2 (SLC38A2) gene in modified HCC1806 cells (clone C10 nullizygous for ASCT2 ([Broer et al., 2019])), the GeneArt CRISPR Nuclease Vector with OFP Reporter Kit (Invitrogen; A21174) was employed and complementary 19–20 bp long single-stranded oligonucleotides with overhangs were designed to produce a guide RNA (gRNA) for the Cas9 nuclease that would target exon 7 of the SNAT2 gene. Colonies were analysed by sequencing using the U6 primer included in the GeneArt CRISPR Nuclease Vector with OFP Reporter kit. Plasmids that contained the correct CRISPR nuclease construct were then used to transfect HCC1806 cells with Lipofectamine 2000 (Invitrogen). Prior to transfection, medium was replaced with 2 ml of fresh DMEM/F-12 (supplemented with 10% heat-inactivated FBS and 2 mM glutamine). Plasmid DNA (4 µg) and 10 µL of Lipofectamine 2000 were incubated separately for 5 min at room temperature in 500 µl of Opti-MEM (Invitrogen) before being combined and incubated for a further 30 min at room temperature. The DNA-Lipofectamine complex was then added to the cells in a dropwise manner and allowed to be absorbed over 6 h at 37°C, after which the medium was renewed with fresh DMEM/F-12. Cells were checked for red fluorescence using an EVOS FL cell imaging system (Thermo Fisher Scientific) 48–72 h post transfection. Subsequently, cells were detached using 0.25% Trypsin EDTA. After harvesting and washing thrice with PBS (pH 7.4), cells were resuspended in PBS (pH 7.4) supplemented with 5 mM glucose and 1% dialysed and heat inactivated FBS and passed through a 100 μm cell strainer. The cell filtrate was then pelleted once more and resuspended in the same buffer. Cells were sorted using an ARIA II FACS machine and individually dispensed into the wells of a 96-well plate. Nullizygous clones were identified using a series of assays including the FLIPR membrane potential assay, western blotting and sequencing.
# The FLIPR Membrane Potential Blue Explorer Kit (Molecular Devices) was used to characterise inhibitors and to optimise a high-throughput compound screen. Cells were seeded at approximately 60,000 cells/well on a 96-well plate and allowed to attach and grow overnight in a cell incubator. The next day, the cells were washed once with mHBSS and incubated in a starvation medium (composed of mHBSS with 1% dialysed heat-inactivated FBS, 23 mM NaHCO3, 10 U/ml penicillin and 10 μg/ml streptomycin) for 24 h. Cells were then washed once with mHBSS and incubated with 50 µl of the mHBSS-resuspended FMP assay dye and 50 µl of mHBSS (with or without inhibitors) and incubated at room temperature for 30 min. The plate was then placed in an EnSpire Multimode plate reader (PerkinElmer) and four sequential measurements of fluorescence were recorded as a baseline reference. Immediately after the baseline measurements were taken, 25 µl of 5 mM glutamine dissolved in mHBSS was injected into each well and the plate was shaken orbitally for 5 s before a series of consecutive fluorescence measurements were taken. The excitation wavelength was set to 530 nm and the emission was detected at 565 nm. The Δ fluorescent signal reported in the figures was taken 30 s after substrate addition. After the assay was complete, the liquid content of the plate was carefully removed, and the cell monolayer inspected to ensure it remained intact throughout the course of the assay.
SMILES,lactate production [1],block of glutamine (1 mM) FMP signal [2],"FMP fluorescence ([2]; time 0, replicates 1-10)","FMP fluorescence ([2]; time 12, replicates 1-10)","FMP fluorescence ([2]; time 30, replicates 1-10)","FMP fluorescence ([2]; time 40, replicates 1-10)","FMP fluorescence ([2]; time 50, replicates 1-10)","FMP fluorescence ([2]; time 60, replicates 1-10)","FMP fluorescence ([2]; time 70, replicates 1-10)","FMP fluorescence ([2]; time 80, replicates 1-10)","FMP fluorescence ([2]; time 90, replicates 1-10)","FMP fluorescence ([2]; time -10, replicates 1-10)","FMP fluorescence ([2]; time -20, replicates 1-10)"
"Cc1ccc(S(=O)(=O)N(C)c2ccsc2C(=O)NCc2ccccc2C(F)(F)F)cc1 [Compound 57_E, 3-(N-methyl (4-methylphenyl)sulfonamido)-N-(2-trifluoromethylbenzyl)thiophene-2-carboxamide]",increased,,,,,,,,,,,,
"N[C@@H](CCC(=O)NO)C(=O)O [GHX, L-glutamic acid γ-monohydroxamate]",,still blocked,22435 and 17495 and 17429 and 17955 and 18811 and 18812 and 18737 and 18055 and 17050 and 17347,20191,20609 and 15706 and 15219 and 15815 and 16260 and 16292 and 16468 and 15594 and 14527 and 15164,20541 and 15480 and 15193 and 15674 and 16277 and 16260 and 16583 and 15586 and 14696 and 15217,20610 and 15277 and 15074 and 15756 and 16154 and 16238 and 16249 and 15554 and 14656 and 15194,20690 and 15464 and 15031 and 15758 and 16045 and 16010 and 16126 and 15471 and 14546 and 15121,20527 and 15130 and 14967 and 15329 and 16082 and 16096 and 16209 and 15213 and 14316 and 15085,20404 and 15072 and 14875 and 15595 and 16009 and 15975 and 15951 and 15190 and 14182 and 15130,20524 and 15134 and 14788 and 15354 and 15654 and 15782 and 15863 and 15065 and 14296,22909 and 17766 and 17765 and 18446 and 19408 (2×) and 19505 and 18694 and 17349 and 17632,23556 and 18431 and 18738 and 19301 and 20185 and 20456 and 20335 and 19156 and 18269 and 18621
